Results: ChEMBL document CHEMBL2203203, “Structure-activity relationships of 2-arylamido-5,7-dihydro-4H-thieno[2,3-c]pyran-3-carboxamide derivatives as cannabinoid receptor agonists and their analgesic action” (Bioorg Med Chem Lett, 2012)
pEC50: −log10 of the molar value.

What was measured:
Homo sapiens = species on record: Homo sapiens; test: Selectivity ratio of EC50 for human CB1 receptor to EC50 for human CB2 receptor
Cannabinoid receptor 2 [1] = molecular target: T1, Cannabinoid receptor 2 (Homo sapiens, UniProt P34972); test: Agonist activity at human CB2 receptor after 4 hrs by luciferase reporter gene assay; assay type: functional
T1 sequence (P34972 whole entry): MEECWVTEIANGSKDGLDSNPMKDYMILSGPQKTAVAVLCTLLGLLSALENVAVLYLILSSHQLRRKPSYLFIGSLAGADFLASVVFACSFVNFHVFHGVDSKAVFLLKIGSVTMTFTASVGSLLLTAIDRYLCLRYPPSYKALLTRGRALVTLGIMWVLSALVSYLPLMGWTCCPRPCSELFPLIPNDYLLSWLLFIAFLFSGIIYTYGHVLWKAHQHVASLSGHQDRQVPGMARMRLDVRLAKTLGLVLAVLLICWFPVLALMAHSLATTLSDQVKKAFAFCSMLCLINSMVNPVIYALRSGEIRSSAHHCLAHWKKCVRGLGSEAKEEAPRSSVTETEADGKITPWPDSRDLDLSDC

Cannabinoid receptor 1 [2] = molecular target: T2, Cannabinoid receptor 1 (Homo sapiens, UniProt P21554); test: Agonist activity at human CB1 receptor after 4 hrs by luciferase reporter gene assay; assay type: functional
T2 sequence (P21554 whole entry): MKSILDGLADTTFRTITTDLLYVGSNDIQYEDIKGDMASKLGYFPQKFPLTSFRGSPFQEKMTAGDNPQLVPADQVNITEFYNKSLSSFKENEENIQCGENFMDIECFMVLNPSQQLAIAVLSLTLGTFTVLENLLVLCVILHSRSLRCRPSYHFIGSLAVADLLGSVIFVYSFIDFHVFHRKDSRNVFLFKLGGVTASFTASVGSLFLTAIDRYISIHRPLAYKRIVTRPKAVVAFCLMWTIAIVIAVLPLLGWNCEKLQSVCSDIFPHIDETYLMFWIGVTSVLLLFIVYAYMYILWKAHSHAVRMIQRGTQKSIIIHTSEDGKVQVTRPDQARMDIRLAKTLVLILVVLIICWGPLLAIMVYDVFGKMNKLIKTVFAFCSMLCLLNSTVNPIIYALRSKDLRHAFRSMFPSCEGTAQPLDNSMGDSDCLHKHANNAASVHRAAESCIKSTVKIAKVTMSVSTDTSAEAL

Cannabinoid receptor 1 [3] = molecular target: T2, Cannabinoid receptor 1; test: Agonist activity at human CB1 receptor after 4 hrs by luciferase reporter gene assay relative to control; assay type: functional
Cannabinoid receptor 2 [4] = molecular target: T1, Cannabinoid receptor 2; test: Agonist activity at human CB2 receptor after 4 hrs by luciferase reporter gene assay relative to control; assay type: functional

| Structure (SMILES) | Ratio EC50 (Homo sapiens) | pEC50 (Cannabinoid receptor 2 [1]) | pEC50 (Cannabinoid receptor 1 [2]) | Efficacy (Cannabinoid receptor 1 [3]) [%] | Efficacy (Cannabinoid receptor 2 [4]) [%] |
| --- | --- | --- | --- | --- | --- |
| O=C(Nc1sc2c(c1C(=O)N1CCOCC1)CCOC2)c1ccccc1C(F)(F)F | 50 | 7.46 | 5.76 | 84 | 102 |
| COCC(C)(C)NC(=O)c1c(NC(=O)c2c(F)cccc2C(F)(F)F)sc2c1CCOC2 | > 135 | 7.13 | < 5.00 |  | 94 |
| CC1OCc2sc(NC(=O)CC(C)(C)C)c(C(=O)N3CC(F)(F)C3)c21 (stereo not drawn) | 36 | 8.22 | 6.66 | 94 | 105 |
| COCCNC(=O)c1c(NC(=O)C2CCCC2)sc2c1CCCC2 | 113 | 7.15 | 5.10 | 61 | 81 |
| O=C(Nc1sc2c(c1C(=O)N1CCC(F)(F)CC1)CCOC2)c1ccccc1OC(F)(F)F | 38 | 8.48 | 6.90 | 79 | 96 |
| CC(C)(C)C(=O)c1c(NC(=O)c2ccccc2OC(F)(F)F)sc2c1CCOC2 | > 11 | 6.03 | < 5.00 |  | 102 |
| CC(C)(C)CC(=O)Nc1sc2c(c1C(=O)NCC1CC1)C(C)(C)CC2 | 38 | 8.19 | 6.61 | 96 | 101 |
| COCCNC(=O)c1c(NC(=O)CN2CCCCC2)sc2c1CCCC2 | > 65 | 6.82 | < 5.00 |  | 98 |
| CC(C)(C)CC(=O)Nc1sc2c(c1C(=O)N1CC(F)(F)C1)CCCC2 | 63 | 8.27 | 6.47 | 91 | 99 |
| COCCNC(=O)c1c(NC(=O)C2CCC2)sc2c1CCCC2 | > 49 | 6.70 | < 5.00 |  | 101 |
| COCCNC(=O)c1c(NC(=O)c2ccccc2OC(F)(F)F)sc2c1CCOC2 | > 104 | 7.02 | < 5.00 |  | 100 |
| CC1OCc2sc(NC(=O)CC(C)(C)C)c(C(=O)N3CCCCC3)c21 (stereo not drawn) | 42 | 7.40 | 5.78 | 88 | 91 |
| COc1ccccc1C(=O)Nc1sc2c(c1C(=O)N1CCOCC1)CCOC2 |  | < 5.00 | < 5.00 |  |  |
| O=C(CN1CCCCC1)Nc1sc2c(c1C(=O)N1CC(F)(F)C1)CCCC2 | > 178 | 7.25 | < 5.00 |  | 103 |
| COC1CN(C(=O)c2c(NC(=O)CN3CCCCC3)sc3c2CCCC3)C1 | > 45 | 6.66 | < 5.00 |  | 92 |
| COCCNC(=O)c1c(NC(=O)C2CCCN2C(=O)C2CC2)sc2c1CCCC2 (stereo not drawn) | > 29 | 6.46 | < 5.00 |  | 88 |
| O=C(Nc1sc2c(c1C(=O)O)CCOC2)c1ccccc1Cl |  | < 5.00 | < 5.00 |  |  |
| COCCNC(=O)c1c(NC(=O)c2ccccc2OC(F)(F)F)sc2c1CCC(F)(F)C2 | > 145 | 7.20 | < 5.00 |  | 96 |
| O=C(Nc1sc2c(c1C(=O)N1CC(F)(F)C1)CCC(F)(F)C2)c1ccccc1OC(F)(F)F | 8 | 7.74 | 6.86 | 93 | 99 |
| O=C(CN1CCCC1)Nc1sc2c(c1C(=O)N1CCC(F)(F)CC1)CCCC2 | > 48 | 6.68 | < 5.00 |  | 87 |
| O=C(Nc1sc2c(c1C(=O)N1CCOCC1)CCOC2)c1ccccc1-c1ccccc1 |  | 5.10 | < 5.00 |  | 63 |

| Structure (SMILES) | Ratio EC50 (Homo sapiens) | pEC50 (Cannabinoid receptor 2 [1]) | pEC50 (Cannabinoid receptor 1 [2]) | Efficacy (Cannabinoid receptor 1 [3]) [%] | Efficacy (Cannabinoid receptor 2 [4]) [%] |
| --- | --- | --- | --- | --- | --- |
| O=C(Nc1sc2c(c1C(=O)NCC1CC1)CCC2)c1ccccc1Cl | > 94 | 6.97 | < 5.00 |  | 76 |
| CC(C)(C)C(=O)c1c(NC(=O)c2ccccc2C(F)(F)F)sc2c1CCOC2 | > 11 | 6.05 | < 5.00 |  | 88 |
| CC(C)(C)CC(=O)Nc1sc2c(c1C(=O)N1CCC(F)(F)CC1)CCCC2 | 24 | 8.33 | 6.95 | 86 | 82 |
| O=C(Nc1sc2c(c1C(=O)N1CCOCC1)CCOC2)c1ccc(Cl)cc1Cl |  | 5.03 | < 5.00 |  | 108 |
| O=C(Nc1sc2c(c1C(=O)NCC1CC1)CCOC2)c1c(F)cccc1C(F)(F)F | 74 | 7.96 | 6.09 | 90 | 112 |
| CC(C)c1ccccc1C(=O)Nc1sc2c(c1C(=O)N1CCOCC1)CCOC2 | 42 | 7.46 | 5.82 | 105 | 101 |
| O=C(Nc1sc2c(c1C(=O)N1CCCCC1)CCOC2)c1c(F)cccc1C(F)(F)F | 71 | 7.85 | 6.00 | 94 | 103 |
| Cc1ccccc1C(=O)Nc1sc2c(c1C(=O)N1CCOCC1)CCOC2 | 12 | 6.19 | 5.13 | 97 | 105 |
| O=C(Nc1sc2c(c1C(=O)N1CCOCC1)CCOC2)c1ccccc1OC(F)F | > 20 | 6.31 | < 5.00 |  | 96 |
| O=C(Nc1sc2c(c1C(=O)N1CCOCC1)CCOC2)c1ccc(Cl)cc1 |  | < 5.00 | < 5.00 |  |  |
| COCCNC(=O)c1c(NC(=O)c2ccccc2Cl)sc2c1CCC2 | > 72 | 6.86 | < 5.00 |  | 52 |
| COCCNC(=O)c1c(NC(=O)CC(C)(C)C)sc2c1CCOC2 | > 20 | 6.31 | < 5.00 |  | 101 |
| O=C(Nc1sc2c(c1C(=O)N1CCOCC1)CCOC2)c1cccc(OC(F)(F)F)c1 | > 10 | 6.13 | < 5.00 |  | 77 |
| CC(C)(C)CC(=O)Nc1sc2c(c1C(=O)N1CCC(F)(F)CC1)C(C)(C)CC2 | > 77 | 6.89 | < 5.00 |  | 96 |
| COCC(C)(C)NC(=O)c1c(NC(=O)c2ccccc2OC(F)(F)F)sc2c1CCOC2 | > 100 | 7.00 | < 5.00 |  | 81 |
| COCC(C)(C)NC(=O)c1c(NC(=O)c2ccccc2C(F)(F)F)sc2c1CCOC2 | > 243 | 7.39 | < 5.00 |  | 93 |
| COCCNC(=O)c1c(NC(=O)C2CCCC2)sc2c1CCOC2 | > 32 | 6.50 | < 5.00 |  | 84 |
| O=C(CN1CCCC1)Nc1sc2c(c1C(=O)N1CC(F)(F)C1)CCCC2 | > 25 | 6.40 | < 5.00 |  | 89 |
| O=C(Nc1sc2c(c1C(=O)N1CCOCC1)CCOC2)c1ccccc1OC(F)(F)F | > 90 | 6.99 | < 5.00 |  | 106 |
| O=C(Nc1sc2c(c1C(=O)N1CCOCC1)CCOC2)c1cccc(Cl)c1 |  | 5.85 | < 5.00 |  | 98 |
